Reference: the supplement of paper PMC10307832

Experiments:
Assay in all cases: relative viability (nuclei count vs DMSO), 5 days (fraction); higher = more cells survive
Alpelisib + Trametinib = compound: Cc1nc(NC(=O)N2CCC[C@H]2C(N)=O)sc1-c1ccnc(C(C)(C)C(F)(F)F)c1 [Alpelisib] + CC(=O)Nc1cccc(-n2c(=O)n(C3CC3)c(=O)c3c(Nc4ccc(I)cc4F)n(C)c(=O)c(C)c32)c1 [Trametinib] (partner 0.02 µM)
Method in brief: (§1)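 Lung cancer cell lines in 1536-well plates were dosed by pin tool the day after seeding, either with one drug alone or with a fixed anchor-drug dose plus five library-drug doses (not always all listed) in √10 steps. After 5 days, cells were fixed and their nuclei stained in one step (final 0.05% Triton X-100, 1% formaldehyde, 1 ug/ml Hoechst), then counted on 4× images. Relative viability is the nuclei count in treated wells divided by that in vehicle wells. Values are medians of duplicate plates.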

Alpelisib + Navitoclax = compound: Cc1nc(NC(=O)N2CCC[C@H]2C(N)=O)sc1-c1ccnc(C(C)(C)C(F)(F)F)c1 [Alpelisib] + CC1(C)CCC(c2ccc(Cl)cc2)=C(CN2CCN(c3ccc(C(=O)NS(=O)(=O)c4ccc(N[C@H](CCN5CCOCC5)CSc5ccccc5)c(S(=O)(=O)C(F)(F)F)c4)cc3)CC2)C1 [Navitoclax] (partner 0.5 µM)
Method in brief: as §1

Vemurafenib + Phenformin = compound: CCCS(=O)(=O)Nc1ccc(F)c(C(=O)c2c[nH]c3ncc(-c4ccc(Cl)cc4)cc23)c1F [Vemurafenib] + N=C(N)NC(=N)NCCc1ccccc1 [Phenformin] (partner 250 µM)
Method in brief: as §1

Alpelisib + Vorinostat = compound: Cc1nc(NC(=O)N2CCC[C@H]2C(N)=O)sc1-c1ccnc(C(C)(C)C(F)(F)F)c1 [Alpelisib] + O=C(CCCCCCC(=O)Nc1ccccc1)NO [Vorinostat] (partner 1 µM)
Method in brief: as §1

Cell Line	relative viability (Alpelisib + Trametinib; first compound 0.04 µM)	relative viability (Alpelisib + Trametinib; first compound 0.1265 µM)	relative viability (Alpelisib + Trametinib; first compound 0.4 µM)	relative viability (Alpelisib + Trametinib; first compound 1.265 µM)	relative viability (Alpelisib + Trametinib; first compound 4 µM)	relative viability (Alpelisib + Navitoclax; first compound 0.04 µM)	relative viability (Alpelisib + Navitoclax; first compound 0.1265 µM)	relative viability (Alpelisib + Navitoclax; first compound 0.4 µM)	relative viability (Alpelisib + Navitoclax; first compound 1.265 µM)	relative viability (Alpelisib + Navitoclax; first compound 4 µM)	relative viability (Vemurafenib + Phenformin; first compound 0.03162 µM)	relative viability (Vemurafenib + Phenformin; first compound 0.1 µM)	relative viability (Vemurafenib + Phenformin; first compound 0.3162 µM)	relative viability (Vemurafenib + Phenformin; first compound 1 µM)	relative viability (Alpelisib + Vorinostat; first compound 0.04 µM)	relative viability (Alpelisib + Vorinostat; first compound 0.1265 µM)	relative viability (Alpelisib + Vorinostat; first compound 0.4 µM)	relative viability (Alpelisib + Vorinostat; first compound 1.265 µM)	relative viability (Alpelisib + Vorinostat; first compound 4 µM)
SK-MES-1	0.59	0.523	0.534	0.334	0.385	1.16	1.25	1.29	1.02	0.793	0.624	0.695	0.622	0.706	1.13	1.09	1.15	0.828	0.833
LCLC-97TM1	0.194	0.167	0.165	0.133	0.159	0.411	0.371	0.33	0.206	0.142	0.4	0.43	0.43	0.342	0.673	0.58	0.63	0.33	0.291
NCI-H596	0.801	0.815	0.708	0.48	0.44	0.928	0.919	0.815	0.52	0.418	0.871	0.748	0.725	0.56	0.484	0.837	0.629	0.328	0.267
BEN	0.909	1.17	1.17	0.863	1.03	0.0833	0.0642	0.161	0.0705	0.0615	0.255	0.299	–	0.249	0.588	0.544	0.715	0.578	0.584
LU99A	0.573	0.558	0.599	0.425	0.386	0.785	0.716	0.773	0.546	0.426	0.887	0.841	0.551	0.783	0.462	0.488	0.508	0.415	0.334
RERF-LC-KJ	0.86	0.933	0.895	0.645	0.693	0.768	0.931	0.935	0.626	0.741	0.428	0.408	0.398	0.498	0.634	0.707	0.754	0.504	0.548
NCI-H1944	0.354	0.425	0.4	0.313	0.275	0.964	1.13	1.09	0.824	0.617	0.206	0.18	0.122	0.191	0.538	0.554	0.597	0.399	0.326
HARA	0.633	0.732	0.529	0.257	0.265	1.13	1.17	1.16	1.2	0.575	0.434	0.283	0.328	0.323	0.528	0.52	0.511	0.305	0.391
A-427	0.717	0.624	0.681	0.484	0.501	0.837	0.884	0.997	0.874	0.884	0.317	0.313	0.267	0.365	0.854	0.861	0.893	0.827	0.858
NCI-H2023	0.532	0.452	0.538	0.287	0.208	0.882	1.01	0.887	0.782	0.66	0.376	0.381	0.378	0.354	0.595	0.634	0.61	0.394	0.348
NCI-H2347	0.29	0.285	0.394	0.244	0.232	0.919	0.745	0.868	0.665	0.605	0.33	0.38	0.463	0.234	0.524	0.598	0.766	0.555	0.49
NCI-H1975	0.364	0.315	0.317	0.258	0.177	0.963	1.06	1.03	0.788	0.511	0.422	0.406	0.289	0.466	0.696	0.674	0.61	0.426	0.402
HCC-15	0.354	0.37	0.366	0.248	0.211	0.627	0.7	0.74	0.598	0.454	0.441	0.497	–	0.45	0.913	0.863	0.908	0.598	0.704
COR-L23	0.534	0.484	0.579	0.378	0.353	0.923	1.02	1.07	0.789	0.753	0.38	0.464	0.334	0.435	0.438	0.474	0.398	0.283	0.272
NCI-H23	0.287	0.354	0.252	0.286	0.233	0.708	0.856	0.851	0.532	0.535	0.702	0.797	0.728	0.723	0.634	0.441	0.411	0.414	0.332
NCI-H441	0.472	0.383	0.388	0.247	0.263	0.571	0.434	0.8	0.43	0.552	0.952	0.856	0.739	0.744	0.681	0.716	0.961	0.603	0.401
NCI-H1650	0.688	0.487	0.638	0.505	0.544	1.29	1.29	1.42	0.762	1.19	–	0.353	–	0.376	0.585	0.599	0.756	0.491	0.368
